Data reported in patent publication US20040171680A1, “Treating Syndrome X with substituted tetralins and indanes” (priority 2002, published 2004).
Like-named read-outs stand apart in the source and are kept apart here.

Assays:
PPARα = target: T1, PPARα (Rattus norvegicus, UniProt P37230); test: HD bDNA Assay (HD gene induction); format: cell-based; details: in section F; target not named there, values match the PPARα column; read-out: EC50
T1 construct: H4IIE rat hepatoma cell line was obtained from ATCC; host or cells: H4IIE rat hepatoma cells
T1 sequence (P37230 1-468): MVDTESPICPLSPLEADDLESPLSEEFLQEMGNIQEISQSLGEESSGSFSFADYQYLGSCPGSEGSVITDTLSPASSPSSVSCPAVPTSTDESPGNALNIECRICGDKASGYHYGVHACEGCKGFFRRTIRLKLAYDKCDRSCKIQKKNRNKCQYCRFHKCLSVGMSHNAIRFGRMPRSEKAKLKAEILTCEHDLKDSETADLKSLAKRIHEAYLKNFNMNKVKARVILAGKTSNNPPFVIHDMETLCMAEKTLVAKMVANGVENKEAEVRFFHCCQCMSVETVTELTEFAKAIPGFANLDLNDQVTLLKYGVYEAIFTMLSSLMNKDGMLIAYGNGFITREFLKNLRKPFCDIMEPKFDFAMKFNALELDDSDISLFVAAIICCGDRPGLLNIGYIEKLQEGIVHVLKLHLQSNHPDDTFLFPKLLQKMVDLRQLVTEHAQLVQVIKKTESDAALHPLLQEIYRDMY
Method: HD bDNA Assay H4IIE rat hepatoma cell line was obtained from ATCC. Cells were cultured in 175 cm^2 tissue culture flask or seeded in 96-well plate with (high serum content, 10% fetal bovine serum and 10% calf serum) culture medium and maintained at 37° C. and 5% CO2 throughout study. Twenty-four hours after the initial seeding of the 96-well plate by hand (approximate 100,000/well), the HD gene induction assay was initiated. Media was removed and replaced with 100 ul of low serum culture media (5% charcoal/dextran treated calf serum) containing vehicle (DMSO) or test compounds or standard. Cells returned to incubator for 24 hours culture. At the termination of the challenge, 50 ul lysis buffer with HD gene specific CE, LE, BL probes was added directly into each well to initiate the bDNA HD mRNA assay. The branched DNA assay was performed according to the manufacturer's protocol (Bayer Diagnostics; Emeryville. Calif.). At the end of the assay, the luminescence was quantitated in Dynex MLX microtiter plate luminometer. EC50's were determined by non-linear regression with a sigmoidal fit utilizing Graphpad Prism.

PPARδ = target: T2, PPARδ (Homo sapiens, UniProt Q03181); test: Transfection Assay for PPARδ Receptors (PPAR-Gal4 / Gal4-Luciferase reporter in HEK293 cells); format: cell-based; details: for PPARδ FI: fold induction, PPARδ standard: FI = 36.1; for EC50: values in square brackets
T2 construct: a Gal4-Luciferase reporter is co-transfected
T2 sequence (Q03181 171-441 limits assumed): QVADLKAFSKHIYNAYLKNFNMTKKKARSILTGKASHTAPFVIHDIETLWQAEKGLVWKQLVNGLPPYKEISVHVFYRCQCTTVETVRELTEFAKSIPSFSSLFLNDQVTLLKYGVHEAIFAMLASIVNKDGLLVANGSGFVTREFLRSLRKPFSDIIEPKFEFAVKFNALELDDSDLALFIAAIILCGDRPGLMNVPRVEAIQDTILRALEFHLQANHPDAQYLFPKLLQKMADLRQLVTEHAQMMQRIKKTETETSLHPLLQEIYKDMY
Method: Transfection Assay for PPARδ Receptors
HEK293 cells were grown in DMEM/F-12 Media supplemented with 10% FBS and glutamine (GIBCOBRL). The cells were co-transfected with DNA for PPAR-Gal4 receptor and Gal4-Luciferase Reporter using the DMRIE-C Reagent. On the following day, the DNA-containing medium were replaced with 5% Charcoal treated FBS growth medium. After six hours, cells were seeded in 96 well plate and incubated at 37° C. in CO2 incubator overnight. Cells were challenged by test compounds and incubated for 24 hours at 37° C. in 5% CO2 incubator. Luciferase activity was assayed using the Steady-Glo Luciferase Assay Kit from Promega. DMRIE-C Reagent was purchased from GIBCO Cat. No.10459-014. OPTI-MEM I Reduced Serum Medium was purchased from GIBCO Cat. No. 31985. Steady-Glo Luciferase Assay Kit was obtained from Promega Part# E254B.

PPARγ = target: T3, PPARγ (Homo sapiens, UniProt P37231); test: aP2 Assay for PPAR gamma Agonists (bDNA aP2 mRNA in preadipocytes); format: cell-based; details: for PPARγ FI: fold induction, PPARγ standard: FI = 70.3; for EC50: values in square brackets
T3 construct: Following the challenge of the preadipocytes, cells may be lysed with lysis buffer; endogenous in cells; host or cells: preadipocytes
T3 sequence (P37231 1-505): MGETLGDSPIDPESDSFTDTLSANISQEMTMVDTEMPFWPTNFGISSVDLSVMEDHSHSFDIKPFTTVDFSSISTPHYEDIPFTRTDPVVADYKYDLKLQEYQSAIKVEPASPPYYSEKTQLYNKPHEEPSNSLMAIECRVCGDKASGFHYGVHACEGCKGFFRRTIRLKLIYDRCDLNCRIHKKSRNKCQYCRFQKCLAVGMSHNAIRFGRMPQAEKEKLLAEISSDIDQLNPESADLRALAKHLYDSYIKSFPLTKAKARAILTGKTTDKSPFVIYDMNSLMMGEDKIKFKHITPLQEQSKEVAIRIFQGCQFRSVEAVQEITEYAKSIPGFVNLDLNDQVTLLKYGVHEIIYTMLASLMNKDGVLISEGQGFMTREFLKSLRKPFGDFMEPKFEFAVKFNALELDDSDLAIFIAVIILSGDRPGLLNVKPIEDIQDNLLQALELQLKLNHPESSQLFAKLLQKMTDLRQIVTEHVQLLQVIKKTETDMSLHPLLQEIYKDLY
From the text: aP2 Assay for PPAR gamma Agonists
The procedure is described in detail in Burris et al., Molecular Endocrinology, 1999, 13:410, which is hereby incorporated by reference in its entirety, and aP2 assay results of agonist intrinsic activity may be presented as fold increase over vehicle in induction of aP2 mRNA production.
Twenty-four hours after the initial seeding of the 96-well plates by hand (around 20,000/well), the differentiation assay may be initiated. Medium may be removed and replaced with […] of differentiation medium containing vehicle (DMSO) or test compounds. Cells may be returned to incubator for 24 hours culture. At the termination of the challenge, medium may be removed and 100 ul of lysis buffer may be added to initiate the bDNA aP2 mRNA assay. The branched DNA assay may be performed according to the manufacturer's protocol (Bayer Diagnostics; Emeryville, Calif.). Result may be expressed as the fold increase of aP2 mRNA production activated over vehicle controls. EC50's and Emax may be determined by non-linear regression with a sigmoidal fit curve.
Following the challenge of the preadipocytes, cells may be lysed with lysis buffer (Bayer Diagnostics) containing the aP2 oligonucleotides. After a 15 minute incubation at 53° C. or 30 minutes at 37° C. incubator, 70 ul of the lysis buffer from each well may be added to a corresponding capture well (preincubated with 70 ul of blocking buffer (Bayer Diagnostics)). The capture plate may be incubated overnight at 53° C. in a plate incubator (Bayer Diagnostics). After this incubation, the bDNA and labeled probes may be annealed as directed by the manufacturer. Following a 30-minute incubation with the luminescent alkaline phosphatase substrate, dioxitane, the luminescence may be quantitated in a Dynex MLX microtiter plate luminometer. Oligonucleotide probes designed to anneal to the aP2 mRNA and function in the bDNA mRNA detection system are designed with ProbeDesigner software (Bayer Diagnostics). This software package analyzes a target sequence of interest with a series of algorithms in order to determine which regions of the sequence can perform as locations for capture, label, or spacer probe annealing. The sequences of the oligonucleotides are as follows: […]

db/db mice = test: Oral dosing in female db/db mice; format: in vivo; details: Mus musculus, 120 h, 1.0 mpk, 5 day oral dosing, % change compared to vehicle
Method: The compound was prepared as suspensions in 0.5% hydroxypropylmethylcellulose (Dow Chemical, Midland, Mich.). The dosing volume was 10 mL/kg of body weight. […] Body weight was measured in the mornings on Day 1, prior to dosing, and on Day 12 before bleeding. 18-24 hours after the final dose for each group, the mice were anesthetized with CO2/O2 (70:30) and bled by retro-orbital sinus puncture into micro-tubes containing clog activator and then put in ice. The serum samples were prepared by centrifugation. Serum glucose and triglycerides were determined by using COBAS Mira Plus blood chemistry analyzer (Roche Diagnostics, N.J.). Serum insulin was measured by using ALPCO insulin ELISA kit.
Statistical analysis was performed using the program Prism (Graphpad, Monrovia, Calif.) and performing one-way ANOVA with a Dunnet's multiple comparison test.

| EC50 (PPARα) [nM] | PPARδ FI (PPARδ) | PPARγ FI (PPARγ) | SMILES | change in vivo at 1 mg/kg (db/db mice; read-out: Δ BW) [%] | change in vivo at 1 mg/kg (db/db mice; read-out: Δ Plasma Glucose) [%] | change in vivo at 1 mg/kg (db/db mice; read-out: Δ Plasma Insulin) [%] | change in vivo at 1 mg/kg (db/db mice; read-out: Δ Plasma TG) [%] | EC50 (PPARδ) [nM] | EC50 (PPARγ) [nM] |
| --- | --- | --- | --- | --- | --- | --- | --- | --- | --- |
| 131 | 1.0 | 2.9 | CCCCCN(C(=O)Nc1ccc(N(C)C)cc1)C1Cc2ccc(SC(C)(C)C(=O)O)cc2C1 (stereo not drawn) [Example 9, 2-{2-[3-(4-Dimethylaminophenyl)-1-pentylureido]indan-5-ylsulfanyl}-2-methylpropionic acid] | 0.05 | -13 | -40 | -6 |  |  |
| 53 | 2.5 | 4.0 | CCCCCN(C(=O)Nc1ccc(SC(F)(F)F)cc1)C1Cc2ccc(SC(C)(C)C(=O)O)cc2C1 (stereo not drawn) [Example 5, 2-Methyl-2-{2-[1-pentyl-3-(4-trifluoromethylsulfanylphenyl)ureido]indan-5-ylsulfanyl}propionic acid] | 56 | -31 | -43 | -19 |  |  |
| 183 |  | 11 | CCCCCN(C(=O)Nc1ccc(-c2ccccc2)cc1)C1Cc2ccc(SC(C)(C)C(=O)O)cc2C1 (stereo not drawn) [Example 12] |  |  |  |  |  |  |
| 213 | 1.3 | 0.3 | CCCCCCN(C(=O)Nc1ccc(OC(F)(F)F)cc1)C1Cc2ccc(SC(C)(C)C(=O)O)cc2C1 (stereo not drawn) [Example 14, 2-Methyl-2-{2-[1-hexyl-3-(4-trifluoromethoxyphenyl)ureido]indan-5-ylsulfanyl}propionic acid] |  |  |  |  |  |  |
| 184 |  | 1.2 | CCCCCCN(C(=O)Nc1ccc(C(C)C)cc1)C1Cc2ccc(SC(C)(C)C(=O)O)cc2C1 (stereo not drawn) [Example 13] |  |  |  |  |  |  |
| 37 |  | 3.7 | CCN(C(=O)Nc1ccc(SC(F)(F)F)cc1)C1Cc2ccc(SC(C)(C)C(=O)O)cc2C1 (stereo not drawn) [Example 4, 2-{2-[1-Ethyl-3-(4-trifluoromethylsulfanylphenyl)ureido]indan-5-ylsulfanyl}-2-methylpropionic acid] | -11 | -49 | -13 | -47 |  |  |
| 106 |  | 0.44 | CC(C)CCN(C(=O)Nc1ccc(OC(F)(F)F)cc1)C1Cc2ccc(SC(C)(C)C(=O)O)cc2C1 (stereo not drawn) [Example 20, 2-Methyl-2-{2-[1-(3-methylbutyl)-3-(4-trifluoromethoxyphenyl)ureido]indan-5-ylsulfanyl}-2-methylpropionic acid] |  |  |  |  |  |  |
| 135 |  | 0.31 | CC(C)(Sc1ccc2c(c1)CC(NC(=O)Nc1ccc(OC(F)(F)F)cc1)C2)C(=O)O (stereo not drawn) [Example 18, 2-Methyl-2-{2-[3-(4-trifluoromethoxyphenyl)ureido]indan-5-ylsulfanyl}propionic acid] |  |  |  |  |  |  |
| 158 |  | 0.37 | CCCN(C(=O)Nc1ccc(OC(F)(F)F)cc1)C1Cc2ccc(SC(C)(C)C(=O)O)cc2C1 (stereo not drawn) [Example 16, 2-Methyl-2-{2-[1-propyl-3-(4-trifluoromethoxyphenyl)ureido]indan-5-ylsulfanyl}propionic acid] |  |  |  |  |  |  |

| SMILES | EC50 (PPARα) [nM] | PPARδ FI (PPARδ) | PPARγ FI (PPARγ) | change in vivo at 1 mg/kg (db/db mice; read-out: Δ BW) [%] | change in vivo at 1 mg/kg (db/db mice; read-out: Δ Plasma Glucose) [%] | change in vivo at 1 mg/kg (db/db mice; read-out: Δ Plasma Insulin) [%] | change in vivo at 1 mg/kg (db/db mice; read-out: Δ Plasma TG) [%] | EC50 (PPARδ) [nM] | EC50 (PPARγ) [nM] |
| --- | --- | --- | --- | --- | --- | --- | --- | --- | --- |
| CCN(C(=O)Oc1ccc(OC(F)(F)F)cc1)C1CCc2cc(SC(C)(C)C(=O)O)ccc2C1 (stereo not drawn) [Example 60, 2-{6-[Ethyl-(4-trifluoromethoxy-phenoxycarbonyl)-amino]-5,6,7,8-tetrahydronaphthalen-2-ylsulfanyl}-2-methyl-propionic acid] | 2 |  |  |  |  |  |  | > 3000 | > 3000 |
| CCN(C(=O)Oc1ccc(C)cc1)C1CCc2cc(SC(C)(C)C(=O)O)c(Cl)cc2C1 (stereo not drawn) [Example 58, 2-{3-Chloro-6-[(4-methyl-phenoxycarbonyl)-ethyl-amino]-5,6,7,8-tetrahydronaphthalen-2-ylsulfanyl}-2-methyl-propionic acid] | 340 |  |  |  |  |  |  | 613 | > 3000 |
| CCN(C(=O)Oc1ccc(Cl)cc1)C1CCc2cc(SC(C)(C)C(=O)O)c(Cl)cc2C1 (stereo not drawn) [Example 59, 2-{3-Chloro-6-[(4-chloro-phenoxycarbonyl)-ethyl-amino]-5,6,7,8-tetrahydronaphthalen-2-ylsulfanyl}-2-methyl-propionic acid] | 390 |  |  |  |  |  |  | 655 | 1110 |
